Results reported in US9237747B2, “Herbicidal compositions comprising 4-amino-3-chloro-5-fluoro-6-(4-chloro-2-fluoro-3-methoxyphenyl) pyridine-2-carboxylic acid or a derivative thereof and insecticides” (priority 2013, dated 2016).
Where a name gives a salt, the structure may show the parent alone. Read-outs that look alike come from different tables or passages of the source.

Tests used:
ECHCG = format: in vivo, Echinochloa crus-galli
Description: (§1) Seeds or nutlets of the desired test plant species were planted in a soil matrix prepared by mixing a loam or sandy loam soil (e.g., 28.6 percent silt, 18.8 percent clay, and 52.6 percent sand, with a pH of about 5.8 and an organic matter content of about 1.8 percent) and calcareous grit in an 80 to 20 ratio. The soil matrix was contained in plastic pots with a volume of 1 quart and a surface area of 83.6 square centimeters (cm^2). […] The plants were grown for 8-22 days in a greenhouse with an approximate 14 hour (h) photoperiod which was maintained at about 29° C. during the day and 26° C. during the night. Nutrients (Peters Excel® 15-5-15 5-Ca 2-Mg and iron chelate) were applied in the irrigation solution as needed and water was added on a regular basis. Supplemental lighting was provided with overhead metal halide 1000-Watt lamps as necessary. The plants were employed for testing when they reached the first through fourth true leaf stage.
(§2) Treatments consisted of the acid or esters of 4-amino-3-chloro-6-(4-chloro-2-fluoro-3-methoxyphenyl)-5-fluoropyridine-2-carboxylic acid (Compound A), each formulated as an SC (suspension concentrate), and various insecticidal components alone and in combination. Forms of compound A were applied on an acid equivalent basis.
(§3) For treatments comprised of formulated compounds, measured amounts of compounds were placed individually in 25 mL glass vials and diluted in a volume of 1.25% volume per volume (v/v) Agri-Dex® crop oil concentrate to obtain 12× stock solutions. […] Application solutions were prepared by adding an appropriate amount of each stock solution (e.g., 1 mL) and diluted to the appropriate final concentrations with the addition of […] of an aqueous mixture of 1.25% (v/v) crop oil concentrate so that the final spray solutions contained 1.25+/−0.05% (v/v) crop oil concentrate.
(§4) As required, additional water and/or 97:3 v/v acetone/DMSO was added to individual application solutions so that the final acetone and DMSO concentrations of the application solutions being compared were 8.1% and 0.25%, respectively.
(§5) All stock solutions and applications solutions were visually inspected for compound compatibility prior to application. Spray solutions were applied to the plant material with an overhead Mandel track sprayer equipped with 8002E nozzles calibrated to deliver 187 L/ha over an application area of 0.503 square meters (m^2) at a spray height of 18 to 20 inches (46 to 50 cm) above average plant canopy height. Control plants were sprayed in the same manner with the solvent blank.
(§6) The treated plants and control plants were placed in a greenhouse as described above and watered by sub-irrigation to prevent wash-off of the test compounds. After approximately 3 weeks, the condition of the test plants as compared to that of the untreated plants was determined visually and scored on a scale of 0 to 100 percent where 0 corresponds to no injury or growth inhibition and 100 corresponds to complete kill.
(§7) Colby's equation was used to determine the herbicidal effects expected from the mixtures (Colby, S. R. Calculation of the synergistic and antagonistic response of herbicide combinations. Weeds 1967, 15, 20-22.).
(§8) The following equation was used to calculate the expected activity of mixtures containing two active ingredients, A and B: Expected=A+B−(A×B/100)

IPOHE = format: in vivo, Ipomoea hederacea
Description: as §1, §2, §3, §4, §5, §6, §7, §8

BRAPP = experiment: Postemergence foliar-applied weed control, direct-seeded rice (greenhouse); format: in vivo, Brachiaria platyphylla
From the text: (§9) Seeds or nutlets of the desired test plant species were planted in a soil matrix prepared by mixing a loam or sandy loam soil (e.g., 28.6 percent silt, 18.8 percent clay, and 52.6 percent sand, with a pH of about 5.8 and an organic matter content of about 1.8 percent) and calcareous grit in an 80 to 20 ratio. The soil matrix was contained in plastic pots with a volume of 1 quart and a surface area of 83.6 square centimeters (cm^2). When required to ensure good germination and healthy plants, a fungicide treatment and/or other chemical or physical treatment was applied. The plants were grown for 8-22 days in a greenhouse with an approximate 14 hour (h) photoperiod which was maintained at about 29° C. during the day and 26° C. during the night. Nutrients (Peters Excel® 15-5-15 5-Ca 2-Mg and iron chelate) were applied in the irrigation solution as needed and water was added on a regular basis. Supplemental lighting was provided with overhead metal halide 1000-Watt lamps as necessary. The plants were employed for testing when they reached the first through fourth true leaf stage.
as §2
(§10) Treatment requirements were calculated based upon the rates being tested, the concentration of active ingredient or acid equivalent in the formulation, and a 12 milliliter (mL) application volume at a rate of 187 liters per hectare (L/ha).
as §3, §4, §5, §6, §7, §8

DIGSA = format: in vivo, Digitaria sanguinalis
Description: as §1, §2, §3, §4, §5, §6, §7, §8

ECHCO = experiment: Postemergence foliar-applied weed control, direct-seeded rice (greenhouse); format: in vivo, Echinochloa colonum
Description: as §1, §2, §3, §4, §5, §6, §7, §8

LEFCH = experiment: whole plant or invertebrate; format: in vivo, Leptochloa chinensis
Description: as §1, §2, §3, §4, §5, §6, §7, §8

LEFFA = experiment: Postemergence foliar-applied weed control, direct-seeded rice (greenhouse); format: in vivo, Leptochloa fascicularis
From the text: as §9, §2, §10, §3, §4, §5, §6, §7, §8

## CN(C)C(CSC(N)=O)CSC(N)=O [Cartap Hydrochloride, S,S′-(2-dimethylaminotrimethylene)bis(thiocarbamate), reference compound]
ECHCG; 250 g ai/ha alone
  Visual Weed Control (%) - 22 DAA ECHCG Obs: 0%
ECHCG; 500 g ai/ha alone
  Visual Weed Control (%) - 22 DAA ECHCG Obs: 0%
IPOHE; 250 g ai/ha alone
  Visual Weed Control (%) - 22 DAA IPOHE Obs: 10%
IPOHE; 500 g ai/ha alone
  Visual Weed Control (%) - 22 DAA IPOHE Obs: 0%

## CCOP(=S)(OCC)Oc1nc(Cl)c(Cl)cc1Cl [Chlorpyrifos, O,O-diethyl O-3,5,6-trichloro-2-pyridyl phosphorothioate]
BRAPP; 180 g ai/ha alone
  Visual Weed Control (%) - 20 DAA BRAPP Obs: 0%
BRAPP; 360 g ai/ha alone
  Visual Weed Control (%) - 20 DAA BRAPP Obs: 0%
BRAPP; 720 g ai/ha alone
  Visual Weed Control (%) - 20 DAA BRAPP Obs: 0%
DIGSA; 180 g ai/ha alone
  Visual Weed Control (%) - 20 DAA DIGSA Obs: 0%
  Visual Weed Control (%) - 22 DAA DIGSA Obs: 0%
DIGSA; 360 g ai/ha alone
  Visual Weed Control (%) - 20 DAA DIGSA Obs: 0%
  Visual Weed Control (%) - 22 DAA DIGSA Obs: 0%
DIGSA; 500 g ai/ha alone
  Visual Weed Control (%) - 20 DAA DIGSA Obs: 0%
DIGSA; 720 g ai/ha alone
  Visual Weed Control (%) - 20 DAA DIGSA Obs: 0%
  Visual Weed Control (%) - 22 DAA DIGSA Obs: 0%
ECHCG; 180 g ai/ha alone
  Visual Weed Control (%) - 20 DAA ECHCG Obs: 0%
ECHCG; 360 g ai/ha alone
  Visual Weed Control (%) - 20 DAA ECHCG Obs: 0%
ECHCG; 720 g ai/ha alone
  Visual Weed Control (%) - 20 DAA ECHCG Obs: 0%
ECHCO; 180 g ai/ha alone
  Visual Weed Control (%) - 20 DAA ECHCO Obs: 0%
ECHCO; 360 g ai/ha alone
  Visual Weed Control (%) - 20 DAA ECHCO Obs: 0%
ECHCO; 720 g ai/ha alone
  Visual Weed Control (%) - 20 DAA ECHCO Obs: 0%
IPOHE; 180 g ai/ha alone
  Visual Weed Control (%) - 20 DAA IPOHE Obs: 10%
IPOHE; 360 g ai/ha alone
  Visual Weed Control (%) - 20 DAA IPOHE Obs: 10%
IPOHE; 720 g ai/ha alone
  Visual Weed Control (%) - 20 DAA IPOHE Obs: 0%
LEFCH; 180 g ai/ha alone
  Visual Weed Control (%) - 20 DAA LEFCH Obs: 0%
LEFCH; 360 g ai/ha alone
  Visual Weed Control (%) - 20 DAA LEFCH Obs: 0%
LEFCH; 500 g ai/ha alone
  Visual Weed Control (%) - 20 DAA LEFCH Obs: 0%
LEFCH; 720 g ai/ha alone
  Visual Weed Control (%) - 20 DAA LEFCH Obs: 0%
LEFCH; Dinebra chinensis, post-emergence, 528 h, 720 g ai/ha alone, read-out: Visual Weed Control (%) - 22 DAA LEFCH Obs
  pest or weed control at 720 g/ha: 5%
LEFFA; 180 g ai/ha alone
  Visual Weed Control (%) - 22 DAA LEFFA Obs: 0%
LEFFA; 360 g ai/ha alone
  Visual Weed Control (%) - 22 DAA LEFFA Obs: 0%
LEFFA; 720 g ai/ha alone
  Visual Weed Control (%) - 22 DAA LEFFA Obs: 0%

## N#Cc1nn(-c2c(Cl)cc(C(F)(F)F)cc2Cl)c(N)c1[S+]([O-])C(F)(F)F [Fipronil, 5-amino-[2,6-dichloro-4-(trifluoromethyl)phenyl]-4-[(1R,S)-(trifluoromethyl)sulfinyl]-1H-pyrazole-3-carbonitrile, reference compound]
BRAPP; 50 g ai/ha alone
  Visual Weed Control (%) - 20 DAA BRAPP Obs: 0%
ECHCG; 50 g ai/ha alone
  Visual Weed Control (%) - 20 DAA ECHCG Obs: 0%

## COP(N)(=O)SC (stereo not drawn) [Methamidophos, O,S-dimethyl phosphoramidothioate, reference compound]
ECHCO; 112 g ai/ha alone
  Visual Weed Control (%) - 19 DAA ECHCO Obs: 0%
ECHCO; 224 g ai/ha alone
  Visual Weed Control (%) - 19 DAA ECHCO Obs: 0%
IPOHE; 112 g ai/ha alone
  Visual Weed Control (%) - 19 DAA IPOHE Obs: 0%
IPOHE; 224 g ai/ha alone
  Visual Weed Control (%) - 19 DAA IPOHE Obs: 0%

## spinetoram
ECHCO; 30 g ai/ha alone
  Visual Weed Control (%) - 19 DAA ECHCO Obs: 0%
ECHCO; 60 g ai/ha alone
  Visual Weed Control (%) - 19 DAA ECHCO Obs: 0%
ECHCO; 120 g ai/ha alone
  Visual Weed Control (%) - 19 DAA ECHCO Obs: 0%
LEFCH; 30 g ai/ha alone
  Visual Weed Control (%) - 19 DAA LEFCH Obs: 0%
LEFCH; 60 g ai/ha alone
  Visual Weed Control (%) - 19 DAA LEFCH Obs: 0%
LEFCH; 120 g ai/ha alone
  Visual Weed Control (%) - 19 DAA LEFCH Obs: 0%

## spinosad [reference compound]
IPOHE; 70 g ai/ha alone
  Visual Weed Control (%) - 21 DAA IPOHE Obs: 0%
IPOHE; 140 g ai/ha alone
  Visual Weed Control (%) - 21 DAA IPOHE Obs: 0%
IPOHE; 280 g ai/ha alone
  Visual Weed Control (%) - 21 DAA IPOHE Obs: 0%
LEFCH; 140 g ai/ha alone
  Visual Weed Control (%) - 21 DAA LEFCH Obs: 0%
LEFCH; 280 g ai/ha alone
  Visual Weed Control (%) - 21 DAA LEFCH Obs: 0%
